Consider eight compounds from paper PMC3945162 (Psychopharmacology, 2013).

For data set [1], the target named is T1, hDAT (Homo sapiens, UniProt Q01959). As to the kind of experiment: [3H]Dopamine release, HEK-hDAT cells. Format: cell-based. The conditions noted are these: HEK-hDAT cells.
The test system of data set [2] is rats trained to discriminate METH (1 mg/kg) from saline. It is filed as in vivo, rat. The settings on record: METH-trained rats; 15 min pretreatment.
For data set [3], the target named is T1, hDAT. Description: [3H]Dopamine uptake, HEK-hDAT cells. Format: cell-based.
Data set [4] addresses T2, human 5-HT2A receptor (Homo sapiens, UniProt P28223). Description: [125I]DOI binding, HEK-5-HT2A cells.
Data set [5] deals with rats trained to discriminate DOM (0.5 mg/kg) from saline. Format: in vivo, rat. The conditions noted are these: 15 min pretreatment.
Data set [6] deals with rats trained to discriminate MDMA (1.5 mg/kg) from saline. It is filed as in vivo, rat. The conditions noted are these: MDMA-trained rats, 15 min pretreatment.
In data set [7] the target is T3, hSERT (Homo sapiens, UniProt P31645). As to the kind of experiment: [125I]RTI-55 binding, HEK-hSERT cells.
Data set [8] relates to rats trained to discriminate LSD (0.1 mg/kg) from saline. Format: in vivo, rat. The conditions noted are these: LSD-trained rats, 15 min pretreatment.
Data set [9] has as its target T1, hDAT. Description: [125I]RTI-55 binding, HEK-hDAT cells.
Data set [10] addresses T4, hNET (Homo sapiens, UniProt P23975). Description: cell-based.
In data set [11] the target is T3, hSERT. As to the kind of experiment: [3H]Serotonin release, HEK-hSERT cells. Format: cell-based.
Data set [12] concerns the target T4, hNET. Description: cell-based. This is another data set of the same source.
Data set [13] concerns the target T2, human 5-HT2A receptor. Description: IP-1 formation, HEK-5-HT2A cells. Format: cell-based. The settings on record: for Emax: read-out: 5-HT2A Function IP-1 formation % maximal effect.
In data set [14] the target is T5, human 5-HT1A receptor (Homo sapiens, UniProt P08908).
T5 sequence (P08908 1-422): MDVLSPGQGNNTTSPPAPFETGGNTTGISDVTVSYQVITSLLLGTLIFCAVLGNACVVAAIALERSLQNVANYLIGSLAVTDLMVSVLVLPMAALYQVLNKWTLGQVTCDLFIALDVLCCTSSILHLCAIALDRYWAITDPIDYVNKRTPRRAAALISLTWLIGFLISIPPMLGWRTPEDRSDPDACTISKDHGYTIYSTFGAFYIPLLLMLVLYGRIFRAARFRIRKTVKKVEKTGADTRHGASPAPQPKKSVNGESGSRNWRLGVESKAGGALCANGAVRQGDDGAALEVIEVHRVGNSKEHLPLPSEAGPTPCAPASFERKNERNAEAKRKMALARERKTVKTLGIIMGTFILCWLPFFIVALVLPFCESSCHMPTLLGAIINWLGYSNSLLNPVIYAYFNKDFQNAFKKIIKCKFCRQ
Description: [35S]GTPγS binding functional assay, HEK-5-HT1A. It is filed as biochemical. The settings on record: for Emax: read-out: 5-HT1A Function [35S]GTPγS Binding % maximal effect.

The test system of data set [15] is Male Sprague-Dawley rats. As to the kind of experiment: Adverse effects observed during drug discrimination test sessions. It is filed as in vivo, rat.
Data set [16] concerns Male Swiss–Webster mice. As to the kind of experiment: Locomotor activity. It is filed as in vivo, mouse. The settings on record: mice, i.p.
Data set [17] deals with T2, human 5-HT2A receptor. As to the kind of experiment: [3H]AA release from HEK-5-HT2A cells. The settings on record: for Emax: read-out: 5-HT2A Function [3H]AA release % maximal effect. It is filed as cell-based.
Data set [18] deals with T4, hNET. Description: biochemical. Format: binding.
Data set [19] deals with rats trained to discriminate DMT (5 mg/kg) from saline. Format: in vivo, rat. The settings on record: DMT-trained rats; 15 min pretreatment.
Data set [20] deals with T3, hSERT. As to the kind of experiment: [3H]Serotonin uptake, HEK-hSERT cells. It is filed as cell-based.
The target in data set [21] is T5, human 5-HT1A receptor. As to the kind of experiment: [3H]8-OH-DPAT binding, HEK-5-HT1A.
Data set [22] deals with T6, human 5-HT2C receptor (Homo sapiens, UniProt P28335).
T6 sequence (P28335 33-458): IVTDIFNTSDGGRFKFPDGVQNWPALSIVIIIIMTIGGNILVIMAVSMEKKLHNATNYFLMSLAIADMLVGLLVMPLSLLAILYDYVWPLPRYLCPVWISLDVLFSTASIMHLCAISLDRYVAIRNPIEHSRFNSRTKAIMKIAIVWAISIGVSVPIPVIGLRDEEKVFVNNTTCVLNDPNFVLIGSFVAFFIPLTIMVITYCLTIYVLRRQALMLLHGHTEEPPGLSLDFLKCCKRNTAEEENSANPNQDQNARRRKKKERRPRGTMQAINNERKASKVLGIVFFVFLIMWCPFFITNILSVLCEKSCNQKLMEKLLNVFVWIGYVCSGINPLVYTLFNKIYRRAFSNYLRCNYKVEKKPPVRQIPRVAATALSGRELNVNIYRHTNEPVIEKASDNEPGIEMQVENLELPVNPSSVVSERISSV
Description: cell-based. The settings on record: read-out: 5-HT2C Function IP-formation % maximal effect.

Setting [23] is: normalized to the maximal effect of serotonin.

Where two headings read alike, the source gives them in different places. Bounds are passed on as bounds.

T2 sequence (P28223 whole entry): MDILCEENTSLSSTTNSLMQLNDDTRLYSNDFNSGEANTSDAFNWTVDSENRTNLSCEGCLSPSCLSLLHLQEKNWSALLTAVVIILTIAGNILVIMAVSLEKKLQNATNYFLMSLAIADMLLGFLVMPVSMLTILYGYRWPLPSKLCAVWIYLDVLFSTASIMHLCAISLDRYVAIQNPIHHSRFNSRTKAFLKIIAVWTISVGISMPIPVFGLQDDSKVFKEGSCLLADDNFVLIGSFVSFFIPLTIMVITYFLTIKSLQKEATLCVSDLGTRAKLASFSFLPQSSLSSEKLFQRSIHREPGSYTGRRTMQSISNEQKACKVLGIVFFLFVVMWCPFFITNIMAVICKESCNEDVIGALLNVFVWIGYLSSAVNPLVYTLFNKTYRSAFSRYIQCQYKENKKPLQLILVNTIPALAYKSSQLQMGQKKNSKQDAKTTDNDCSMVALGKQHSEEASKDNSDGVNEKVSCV
T1 sequence (Q01959 whole entry): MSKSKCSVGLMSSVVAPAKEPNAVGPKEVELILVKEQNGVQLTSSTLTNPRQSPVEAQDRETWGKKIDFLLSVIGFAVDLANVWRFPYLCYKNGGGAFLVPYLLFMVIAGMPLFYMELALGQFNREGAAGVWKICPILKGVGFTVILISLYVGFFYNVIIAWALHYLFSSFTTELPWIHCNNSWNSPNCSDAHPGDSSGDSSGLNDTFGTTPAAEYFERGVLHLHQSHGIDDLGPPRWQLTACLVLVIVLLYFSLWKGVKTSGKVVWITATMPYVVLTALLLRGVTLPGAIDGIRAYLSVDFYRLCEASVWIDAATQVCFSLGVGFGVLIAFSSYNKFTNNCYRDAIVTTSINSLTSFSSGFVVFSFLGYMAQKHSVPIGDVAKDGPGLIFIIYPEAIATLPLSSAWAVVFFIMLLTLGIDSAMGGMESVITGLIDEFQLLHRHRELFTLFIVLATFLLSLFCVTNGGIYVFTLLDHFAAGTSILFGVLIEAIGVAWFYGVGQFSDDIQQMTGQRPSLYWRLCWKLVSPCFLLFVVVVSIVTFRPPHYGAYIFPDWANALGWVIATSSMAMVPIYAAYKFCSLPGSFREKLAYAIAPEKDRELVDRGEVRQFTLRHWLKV
T3 sequence (P31645 whole entry): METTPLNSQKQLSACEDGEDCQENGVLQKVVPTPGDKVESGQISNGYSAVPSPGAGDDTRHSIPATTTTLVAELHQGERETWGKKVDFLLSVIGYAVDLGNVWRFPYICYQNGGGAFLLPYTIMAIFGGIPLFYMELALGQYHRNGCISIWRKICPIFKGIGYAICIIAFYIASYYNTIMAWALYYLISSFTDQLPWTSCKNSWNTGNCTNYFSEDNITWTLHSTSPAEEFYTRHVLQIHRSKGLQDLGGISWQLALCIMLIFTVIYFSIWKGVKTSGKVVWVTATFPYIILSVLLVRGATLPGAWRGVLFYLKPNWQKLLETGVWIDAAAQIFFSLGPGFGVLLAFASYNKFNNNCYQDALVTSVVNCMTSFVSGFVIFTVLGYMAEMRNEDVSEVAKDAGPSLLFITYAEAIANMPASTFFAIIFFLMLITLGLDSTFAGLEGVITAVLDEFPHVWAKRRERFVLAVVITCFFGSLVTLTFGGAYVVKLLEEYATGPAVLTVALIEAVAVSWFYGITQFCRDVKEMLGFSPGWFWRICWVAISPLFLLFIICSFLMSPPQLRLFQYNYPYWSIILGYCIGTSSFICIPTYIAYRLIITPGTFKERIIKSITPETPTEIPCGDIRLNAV
T4 sequence (P23975 whole entry): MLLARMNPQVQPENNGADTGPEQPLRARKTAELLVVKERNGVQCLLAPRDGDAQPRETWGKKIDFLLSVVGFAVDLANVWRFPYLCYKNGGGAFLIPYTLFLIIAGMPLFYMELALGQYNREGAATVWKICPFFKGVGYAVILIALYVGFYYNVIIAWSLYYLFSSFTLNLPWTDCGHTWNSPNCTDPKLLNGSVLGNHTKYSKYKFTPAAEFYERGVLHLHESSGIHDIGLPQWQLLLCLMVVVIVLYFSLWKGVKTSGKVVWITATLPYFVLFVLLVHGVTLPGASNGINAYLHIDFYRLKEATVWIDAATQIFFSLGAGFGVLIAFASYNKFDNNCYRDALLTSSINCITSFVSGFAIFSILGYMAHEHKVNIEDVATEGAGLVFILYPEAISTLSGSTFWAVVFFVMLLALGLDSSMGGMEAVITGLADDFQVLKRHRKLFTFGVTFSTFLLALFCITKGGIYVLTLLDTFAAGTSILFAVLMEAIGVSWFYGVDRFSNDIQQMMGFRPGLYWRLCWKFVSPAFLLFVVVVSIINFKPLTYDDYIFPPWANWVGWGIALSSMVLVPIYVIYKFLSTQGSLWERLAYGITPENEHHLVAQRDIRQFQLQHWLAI

For orientation: IC50 means the point on the concentration scale where inhibition reaches its midpoint. Usually Ki stands for the dissociation constant of the complex between target and ligand, obtained from inhibition or displacement. One may read the EC50 as the concentration needed to bring the measured effect to its halfway point. A low value points to higher potency in that assay. For the compound `CCc1cc(OC)c(CCN)cc1OC` [2C-E, 2,5-dimethoxy-4-ethylphenethylamine], the “[3H]Dopamine release % METH maximal effect” value in data set [1] is given as “ND Minimal”. In addition, the “Rate of responding at dose of maximum DAR” value in [2] came to 0.228±0.024 resp/s; in [5], 0.576±0.087 resp/s; in data set [6], 0.053±0.036 resp/s; in data set [8] it was 0.413±0.061 resp/s; in data set [19], 0.466±0.166 resp/s. Moreover, the IC50 is over 10 µM in data set [3], over 9.8 µM in data set [12] and over 7.5 µM in data set [20]. In addition, the Ki in data set [4] was 0.0045 ± 0.00071 µM; in data set [7], over 10 µM; in data set [9], over 10 µM; in [18], over 7.6 µM. Besides, the “Maximum %DAR (drug-appropriate responding)” value in data set [5] (i.p., at dose of maximum DAR) came out at 97±2 %; in data set [6] (i.p., at dose of maximum DAR) it was 100±0 %; in data set [8] (i.p., at dose of maximum DAR), 97±3 %. Also, the “[3H]NE release % METH maximal effect” value in data set [10] was “ND Minimal”. The “[3H]Serotonin release % PCA maximal effect” value in [11] is on record as “ND Minimal”. The EC50 in data set [13] was found to be 0.084 ± 0.016 µM; in data set [17], 0.0071 ± 0.0033 µM. The Emax in data set [13] was 125 ± 13%; in data set [14] it was under 20%; in data set [17], 65 ± 11%. Also, in [15] (10 mg/kg, MDMA-trained rats), the Adverse effect observed entry is “Loss of muscle tone”. The Effect on responding entry in data set [15] (25 mg/kg) is recorded as “completely suppressed responding”. In addition, the “Duration of depressant effects” value in [16] was in the range of 50 to 70 min. The “Duration of stimulant effects” value in [16] is 70 to 100 min. In [16], the “Onset of depressant effects (within, after injection)” value is at most 10 min. For the same compound, in [16], the “Onset of stimulant effects (within, after injection)” value was at most 50 min.

As for `CCSc1cc(OC)c(CCN)cc1OC` [2C-T-2, 2,5-dimethoxy-4-ethylthiophenethylamine], the “[3H]Dopamine release % METH maximal effect” value in data set [1] is given as “ND Minimal”. Moreover, the “Rate of responding at dose of maximum DAR” value was found to be 0.748±0.109 resp/s in data set [2], 0.448±0.130 resp/s in data set [6], 0.208±0.117 resp/s in data set [8] and 0.170±0.106 resp/s in [19]. For the same compound, the IC50 is over 10 µM in [3], over 7.2 µM in [12] and over 8.6 µM in data set [20]. The Ki is 0.0125 ± 0.0044 µM in data set [4]; over 9.4 µM in data set [7]; over 10 µM in data set [9]; over 10 µM in [18]; 1.74 ± 0.66 µM in [21]. Moreover, in [10], the “[3H]NE release % METH maximal effect” value is “ND Minimal”. Moreover, in [11], the “[3H]Serotonin release % PCA maximal effect” value is recorded as “ND Minimal”. Besides, the EC50 turned out to be 0.0079 ± 0.002 µM in [13], 3 ± 1.3 µM in data set [14] and 0.0023 ± 0.00069 µM in data set [17]. For the same compound, the Emax in data set [13] amounted to 87.4 ± 6.5%; in [14], 76 ± 10%; in data set [17] it was 107 ± 6.3%. Moreover, in data set [15] (5 mg/kg, LSD-trained rats), the “Decreased muscle tone (rats affected/tested)” value is listed as 3/6. In addition, the Adverse effects observed result in data set [15] (10 mg/kg) was “hind limb paralysis, salivation and loss of muscle tone”. Besides, the “Rats that failed to complete the first fixed ratio” value in [15] (highest dose tested, in each of DMT-, LSD-, MDMA- and METH-trained groups) is recorded as 5/6. For the same compound, in data set [16], the “Duration of depressant effects” value is 30 to 50 min.

Consider `COC(=O)[C@H]1[C@@H](OC(=O)c2ccccc2)C[C@@H]2CC[C@H]1N2C` [Cocaine, reference compound], for which the “[3H]Dopamine release % METH maximal effect” value in data set [1] is given as “ND Minimal”. Further, the “[3H]Serotonin release % PCA maximal effect” value in data set [11] is listed as “ND Minimal”.

For the compound `CN(C)CCc1c[nH]c2ccccc12` [DMT, N,N,-dimethyltryptamine, reference compound], the Ki in data set [4] amounted to 0.201 ± 0.048 µM. The results for the EC50 in [13] and in [17] were 0.269 ± 0.061 µM and 0.26 ± 0.12 µM, respectively. In addition, the Emax in data set [13] is 39 ± 4.6%; in data set [14], 100 ± 5.2%; in data set [17] it was 105 ± 3%.

Turning to `COc1cc(CC(C)N)c(OC)cc1C` (stereo not drawn) [DOM, 2,5-dimethoxy-4-methylamphetamine, reference compound], the Ki in data set [4] amounted to 0.0081 ± 0.0022 µM; in [21], 11.9 ± 5.6 µM. Besides, the EC50 in data set [13] was determined as 0.0312 ± 0.0096 µM; in [14] it was 13.9 ± 1.5 µM. Moreover, the figures for the Emax in [13] and in data set [14] were 106 ± 11% and 53.8 ± 9.7%, respectively.

Consider `CCN(CC)C(=O)[C@@H]1C=C2c3cccc4[nH]cc(c34)C[C@H]2N(C)C1` [LSD, lysergic acid diethylamide, reference compound], for which the IC50 is over 10 µM in [3] (read-out: [3H]Dopamine uptake IC50, HEK-hDAT cells, cells printed in μM); over 10 µM in data set [12] (read-out: [3H]NE uptake IC50); over 10 µM in data set [20] (read-out: [3H]Serotonin uptake IC50, HEK-hSERT cells, cells printed in μM). Also, the Ki in data set [7] (read-out: hSERT [125I]RTI-55 binding Ki, HEK-hSERT cells, cells printed in μM) is over 10 µM; in [9] (read-out: hDAT [125I]RTI-55 binding Ki, HEK-hDAT cells, cells printed in μM), over 10 µM; in data set [18] (read-out: hNET [125I]RTI-55 binding Ki), 5.6 ± 0.26 µM. Further, the “5-HT2A Function IP-1 formation % maximal effect” value in [13] (setting [23]) was found to be 80.3 ± 4.9%. Further, in data set [17] (setting [23]), the “5-HT2A Function [3H]AA release % maximal effect” value came to 87.8 ± 3.4%.

Take `CNC(C)Cc1ccc2c(c1)OCO2` (stereo not drawn) [MDMA, 3,4-methylenedioxymethamphetamine, reference compound]: the Ki in data set [4] was 20.9 ± 4.6 µM; in data set [21], 11.9 ± 1.2 µM. For the same compound, the results for the EC50 in data set [13] and in data set [14] were 5500 ± 2300 µM and 36 ± 16 µM, respectively. Further, the Emax in [13] is 40.2 ± 7.1%; in data set [22] it was 92.2 ± 8%; in [14] it was 64.3 ± 9.4%.

As for `NCCc1c[nH]c2ccc(O)cc12` [Serotonin, reference compound], the “Average maximal stimulation of IP-1 formation” value in data set [13] (HEK-5-HT2A cells) is reported as 565 ± 46 nM IP1.
